Measured values as given in article PMC7727793, “Aggregation Behavior, Antibacterial Activity and Biocompatibility of Catanionic Assemblies Based on Amino Acid-Derived Surfactants” (International Journal of Molecular Sciences, 2020).

Assays:
[1] = system: HaCaT cell line; assay: MTT cell viability assay; assay type: cell-based, human; conditions: 24 h
Method: (§1) The murine Swiss albino fibroblast (3T3), the squamous carcinoma (A431), the immortal human keratinocyte (HaCaT) and the human epithelial carcinoma (HeLa) cell lines were obtained from Celltec UB. Cells were grown in Dulbecco’s Modified Eagle’s Medium (DMEM) (4.5 g/L glucose) supplemented with 10% (v/v) fetal bovine serum (FBS), 1% (v/v) L-glutamine solution (200 mM) and 1% (v/v) penicillin-streptomycin solution (10,000 U/mL penicillin and 10 mg/mL streptomycin) at 37 °C and 5% CO2 (CO2 Incubator Nuaire, Plymouth, MN, USA). All the biological materials were purchased from Lonza (Verviers, Belgium). Cells were cultured in 75 cm^2 culture flasks (TPP, Trasadingen, Switzerland) and were routinely split using trypsin-EDTA (ethylenediaminetetraacetate) solution (170,000 U/L trypsin and 0.2 g/L EDTA) (Lonza, Verviers, Belgium) when cells are approximately 80% confluent.
3T3 and HaCaT cells (1 × 10^5 cells/ mL) and HeLa and A431 cells (5 × 10^4 cells/mL) were grown at the defined densities into the central 60 wells of a 96-well plate. Cells were incubated for 24 h under 5% CO2 at 37 °C. Then, the spent medium was removed, and cells were incubated during 24 h with the corresponding surfactant systems, previously diluted 50% (v/v) in DMEM medium supplemented with 5% FBS (100 µL).
In this assay, living cells reduce the yellow tetrazolium salt, 2,5-Diphenyl-3, -(4,5-dimethyl-2-thiazolyl) tetrazolium bromide (MTT), to insoluble purple formazan crystals. After the cells were incubated for 24 h with the corresponding systems, the medium was removed and 100 µL (5 mg/mL) of 2,5-Diphenyl-3,-(4,5-dimethyl-2-thiazolyl) tetrazolium bromide (MTT) (Sigma–Aldrich, St. Louis, MO, USA) in phosphate-buffered saline (PBS) (Lonza, Verviers, Belgium), diluted 1:10 in culture medium without phenol red and absence of FBS (Lonza, Verviers, Belgium), was added to the cells. The plates were incubated for 3 h, after which the medium was removed. Thereafter, 100 µL of dimethylsulfoxide (DMSO) (Sigma–Aldrich, St. Louis, MO, USA) was added to each well to dissolve the purple formazan crystals. Plates were then placed in a microtiter-plate shaker for 5 min at room temperature to help the total dissolution. Then, the absorbance of the resulting solutions was measured at 550 nm using a Bio-Rad 550 microplate reader (Hercules, California, USA). The effect of each treatment was calculated as the percentage of tetrazolium salt reduction by viable cells against the untreated cell control (cells with medium only).

[2] = system: 3T3 cell line; assay: MTT cell viability assay; assay type: cell-based, murine; conditions: 3T3, MTT, 24 h
Method: as §1, with “confluent. […]” for “confluent.”
(§2) In this assay, living cells reduce the yellow tetrazolium salt, 2,5-Diphenyl-3, -(4,5-dimethyl-2-thiazolyl) tetrazolium bromide (MTT), to insoluble purple formazan crystals. […] Then, the absorbance of the resulting solutions was measured at 550 nm using a Bio-Rad 550 microplate reader (Hercules, California, USA). The effect of each treatment was calculated as the percentage of tetrazolium salt reduction by viable cells against the untreated cell control (cells with medium only).

[3] = system: 3T3 cell line; assay: NRU cell viability assay; assay type: cell-based, murine; conditions: 3T3, NRU, 24 h
Method: as §1, with “confluent. 3T3 and HaCaT cells (1 × 10^5 cells/ mL) and HeLa and A431 cells (5 × 10^4 cells/mL) were grown at the defined densities into the central 60 wells of a 96-well plate. Cells were incubated for 24 h under 5% CO2 at 37 °C. […] Agitation, determination of the absorbance of the extracted solution and effect of each treatment in comparison with control cells were analogous of those described in the case of the MTT method.” for “confluent.”

[4] = Pyrene fluorescence (II/IIII ratio) CMC determination; assay type: physicochemical; conditions: pyrene probe, 25 °C; estimated error 10%
Method: Fluorescence measurements were carried out using a Shimadzu RF 540 spectrofluorometer (Shimadzu, Kyoto, Japan). Pyrene (Sigma-Aldrich, San Luis, MO, USA) was utilized as a fluorescence probe at 25 °C. From a 5 mM solution of catanionic formulations prepared in a pyrene aqueous solution (10^−6 M), different dilutions were prepared. The fluorescence emission spectra of these binary mixtures were acquired from 340 to 450 nm after excitation at 332 nm. The ratio of the first to the third vibronic peaks (II/IIII) in the emission spectra of pyrene is sensitive to the polarity of the microenvironment and the CMC can be calculated from plots of II/IIII as a function of surfactant concentration.

[5] = system: A431 cell line; assay: MTT cell viability assay; assay type: cell-based
Method: as §1, with “confluent. […]” for “confluent.”
as §2

[6] = system: all microorganisms tested; assay: Broth microdilution MIC, statement for all microorganisms tested; assay type: cell-based; conditions: for Antibacterial activity (in words): tested microorganisms
Method: Antibacterial assays were conducted in vitro using the broth microdilution method. The minimum inhibitory concentration (MIC) is the smallest concentration of antibacterial agent at which bacterial growth is not observed. MIC values were determined for 4 Gram-positive bacteria (methicillin-resistant Staphylococcus aureus ATCC 43300 (MRSA), Bacillus subtilis ATCC 6633, Kocuria rhizophila 9341, Staphylococcus epidermidis ATCC 12228), 3 Gram-negative bacteria (Klebsiella pneumoniae ATCC 4532, Pseudomonas aeruginosa ATCC 27853, Escherichia coli ATCC 8739) and the fungal strain, Candida albicans ATCC 10231. Frozen stocks of bacteria were incubated on Muller Hinton agar plates for 24 h at 37 °C. From this culture, a bacterial suspension of 1 × 10^6 colony forming units CFU/mL was prepared in MHB (pH = 7.3). Two dilutions of pure surfactants and their binary mixtures were prepared in MH broth to obtain a final concentration ranging from 4 to 454 μM in the microtiter plates.
Then, 10 μL of nutrient broth culture of each microorganism was added to achieve a final density of ca. 5 × 10^5 CFU/mL. The cultures were incubated for 24 h at 37 °C. Every assay was repeated three times.

Compound | IC50 [1] | IC50 [2] | IC50 [3] | CMC obtained by Fluorescence (CMCF) [4] | IC50 ([5]; 24 h) | Antibacterial activity (in words) [6] | IC50 ([1]; Homo sapiens) | IC50 ([2]; Mus musculus, NIH3T3) | IC50 ([3]; Mus musculus, NIH3T3) | IC50 ([5]; Homo sapiens, A-431, 24 h) | MIC ([6]; read-out: MIC for all microorganisms tested)
N(π),N(τ)-bis(methyl)-L-Histidine tetradecyl amide [DMHNHC14] | 25.5 µM | 17.1 µM | 26.1 µM | 3.8 mM | 22.6 µM | broad spectrum of antibacterial activity | – | – | – | – | –
CCCCCCCCCCCCCC(=O)O [Sodium myristate, sodium myristate] | – | – | – | 0.90 mM | – | did not show activity | > 50 µM | > 50 µM | > 50 µM | > 50 µM | > 113 µM
